Measurements from the supplement of paper PMC10307832.

Tests used:
Assay in all cases: relative viability (nuclei count vs DMSO), 5 days (fraction); higher = more cells survive
Bexarotene + Decitabine = compound: C=C(c1ccc(C(=O)O)cc1)c1cc2c(cc1C)C(C)(C)CCC2(C)C [Bexarotene] + Nc1ncn([C@H]2C[C@H](O)[C@@H](CO)O2)c(=O)n1 [Decitabine] (partner 2 µM)
Outline: (§1)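 After 5 days of treatment, lung cancer cells in 1536-well plates were fixed and stained in a single step (final 0.05% Triton X-100, 1% formaldehyde, 1 ug/ml Hoechst) and their nuclei counted on 4× images. Treatment had been applied by pin tool the day after seeding as one drug alone or as a fixed anchor-drug dose with five library-drug doses (not always all listed) in √10 steps. Relative viability is the nuclei count of treated wells divided by that of vehicle wells, and values are medians of duplicate plates.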

Bexarotene + Palbociclib = compound: C=C(c1ccc(C(=O)O)cc1)c1cc2c(cc1C)C(C)(C)CCC2(C)C [Bexarotene] + CC(=O)c1c(C)c2cnc(Nc3ccc(N4CCNCC4)cn3)nc2n(C2CCCC2)c1=O [Palbociclib] (partner 0.5 µM)
Outline: as §1

Bexarotene + Phenformin = compound: C=C(c1ccc(C(=O)O)cc1)c1cc2c(cc1C)C(C)(C)CCC2(C)C [Bexarotene] + N=C(N)NC(=N)NCCc1ccccc1 [Phenformin] (partner 250 µM)
Outline: as §1

Bexarotene + Pictilisib = compound: C=C(c1ccc(C(=O)O)cc1)c1cc2c(cc1C)C(C)(C)CCC2(C)C [Bexarotene] + CS(=O)(=O)N1CCN(Cc2cc3nc(-c4cccc5[nH]ncc45)nc(N4CCOCC4)c3s2)CC1 [Pictilisib] (partner 1 µM)
Outline: as §1

Cell Line | relative viability (Bexarotene + Decitabine; first compound 0.08 µM) | relative viability (Bexarotene + Decitabine; first compound 0.253 µM) | relative viability (Bexarotene + Decitabine; first compound 0.8 µM) | relative viability (Bexarotene + Decitabine; first compound 2.53 µM) | relative viability (Bexarotene + Decitabine; first compound 8 µM) | relative viability (Bexarotene + Palbociclib; first compound 0.08 µM) | relative viability (Bexarotene + Palbociclib; first compound 0.253 µM) | relative viability (Bexarotene + Palbociclib; first compound 0.8 µM) | relative viability (Bexarotene + Palbociclib; first compound 2.53 µM) | relative viability (Bexarotene + Palbociclib; first compound 8 µM) | relative viability (Bexarotene + Phenformin; first compound 0.08 µM) | relative viability (Bexarotene + Phenformin; first compound 0.253 µM) | relative viability (Bexarotene + Phenformin; first compound 0.8 µM) | relative viability (Bexarotene + Phenformin; first compound 2.53 µM) | relative viability (Bexarotene + Phenformin; first compound 8 µM) | relative viability (Bexarotene + Pictilisib; first compound 0.08 µM) | relative viability (Bexarotene + Pictilisib; first compound 0.253 µM) | relative viability (Bexarotene + Pictilisib; first compound 0.8 µM) | relative viability (Bexarotene + Pictilisib; first compound 2.53 µM) | relative viability (Bexarotene + Pictilisib; first compound 8 µM)
LCLC-103H | 0.811 | 0.701 | 0.689 | 0.795 | 0.742 | 0.495 | 0.544 | 0.453 | 0.476 | 0.475 | 0.373 | 0.349 | 0.314 | 0.348 | 0.347 | 0.71 | 0.642 | 0.529 | 0.653 | 0.631
NCI-H441 | 0.3 | 0.283 | 0.236 | 0.229 | 0.279 | 0.295 | 0.228 | 0.256 | 0.243 | 0.23 | 1.03 | 0.743 | 0.811 | 0.864 | 0.868 | 0.628 | 0.511 | 0.524 | 0.482 | 0.616
SK-LU-1 | 0.668 | 0.676 |  | 0.588 | 0.599 | 0.419 | 0.394 | 0.326 | 0.393 | 0.37 | 0.633 | 0.667 |  | 0.417 | 0.387 | 0.717 | 0.663 |  | 0.567 | 0.63
BEN | 0.706 | 0.666 | 0.723 | 0.647 | 0.692 | 0.444 | 0.467 | 0.442 | 0.456 | 0.502 | 0.289 | 0.27 | 0.268 | 0.214 | 0.279 | 0.674 | 0.576 | 0.495 | 0.452 | 0.571
LC-2-ad | 0.805 | 0.85 | 0.853 | 0.772 | 0.813 | 0.427 | 0.5 | 0.473 | 0.434 | 0.46 | 0.607 | 0.578 | 0.611 | 0.521 | 0.546 | 0.809 | 0.473 | 0.433 | 0.503 | 0.381
COR-L23 | 0.47 | 0.455 | 0.438 | 0.452 | 0.416 | 0.283 | 0.274 | 0.279 | 0.257 | 0.274 | 0.411 | 0.512 | 0.395 | 0.383 | 0.364 | 0.735 | 0.759 | 0.5 | 0.67 | 0.52
NCI-H1650 | 0.447 | 0.453 | 0.438 | 0.403 | 0.45 | 0.355 | 0.285 | 0.279 | 0.271 | 0.282 | 0.392 | 0.408 | 0.463 | 0.46 | 0.403 | 0.669 | 0.544 | 0.527 | 0.537 | 0.527
RERF-LC-KJ | 0.692 | 0.656 | 0.682 | 0.7 | 0.739 | 1.07 | 1.02 | 0.817 | 0.999 | 0.922 | 0.407 | 0.405 | 0.402 | 0.364 | 0.426 | 0.492 | 0.592 | 0.503 | 0.387 | 0.57
NCI-H1915 | 0.272 | 0.259 | 0.274 | 0.255 | 0.23 | 0.555 | 0.5 | 0.442 | 0.533 | 0.423 | 0.378 | 0.373 | 0.382 | 0.383 | 0.36 | 1.19 | 0.989 | 0.882 | 0.996 | 0.917
NCI-H2009 | 0.404 | 0.394 | 0.373 | 0.404 | 0.364 | 0.32 | 0.239 | 0.201 | 0.226 | 0.322 | 0.554 | 0.527 | 0.526 | 0.479 | 0.479 | 0.96 | 0.959 | 0.723 | 0.818 | 0.8
NCI-H2126 | 0.631 | 0.696 | 0.575 | 0.571 | 0.554 | 0.354 | 0.346 | 0.325 | 0.331 | 0.365 | 0.529 | 0.535 | 0.526 | 0.56 | 0.55 | 0.558 | 0.512 | 0.462 | 0.514 | 0.519
LXF-289 | 0.381 | 0.3 | 0.293 | 0.313 | 0.323 | 0.636 | 0.63 | 0.605 | 0.593 | 0.639 | 0.591 | 0.544 | 0.523 | 0.516 | 0.508 | 0.798 | 0.68 | 0.711 | 0.581 | 0.604
HCC-44 | 1.07 | 0.96 | 0.907 | 1.01 | 0.897 | 1 | 1.03 | 0.836 | 0.93 | 0.946 | 0.148 | 0.409 | 0.27 | 0.145 | 0.289 | 0.661 | 0.663 | 0.479 | 0.579 | 0.459
PC-14 | 0.288 | 0.251 | 0.251 | 0.206 | 0.209 | 0.519 | 0.531 | 0.543 | 0.489 | 0.344 | 0.611 | 0.61 | 0.523 | 0.435 | 0.522 | 0.663 | 0.724 | 0.7 | 0.704 | 0.565
HOP-62 | 0.222 | 0.183 | 0.183 | 0.164 | 0.208 | 0.502 | 0.516 | 0.451 | 0.409 | 0.491 | 0.738 | 0.701 | 0.698 | 0.651 | 0.571 | 1.04 | 0.811 | 0.684 | 0.79 | 0.626
NCI-H358 | 0.212 | 0.216 | 0.184 | 0.222 | 0.185 | 0.129 | 0.138 | 0.154 | 0.124 | 0.138 | 0.48 | 0.396 | 0.372 | 0.33 | 0.39 | 0.377 | 0.364 | 0.376 | 0.435 | 0.351
